Where a name gives a salt, the structure may show the parent alone.
Tested on: behaviors of compound-treated mice
Experiment: Neuropharmacological Assay (SmartCube)
Type: in vivo
Conditions: for minimal effective dose: Mus musculus, ip, 0.25 h, dose having 50% or more total activity in SmartCube, i.p., read-out: MED (minimal effective dose); for AD: ADHD (probability that activity matches class) / AG: analgesic (probability that activity matches class) / AX: anxiolytic (probability that activity matches class) / CE: cognitive enhancer (probability that activity matches class) / DP: anti-depressant (probability that activity matches class) / MS: mood stabilizer (probability that activity matches class) / PS: anti-psychotic (probability that activity matches class) / SD: sedative hypnotic (probability that activity matches class) / UN: uncharacterized CNS activity (probability that activity matches class): i.p. 15 min before behavioral test, most efficacious dose(s) of 3 doses
Summary of the method: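 Mice dosed i.p. 15 min before testing, with compound in N-methyl-2-pyrrolidone/PEG/propylene glycol, were video-recorded and algorithmically compared with reference-drug behavioral signatures. This gave class-match probabilities (antidepressant, anxiolytic, etc.) at the most efficacious of 3 doses. MED was defined as the dose with ≥50% total activity, usually tested across 0.3–30 mpk.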

Structure (SMILES)	minimal effective dose [mg/kg]	AD: ADHD (probability that activity matches class)	AG: analgesic (probability that activity matches class)	AX: anxiolytic (probability that activity matches class)	CE: cognitive enhancer (probability that activity matches class)	DP: anti-depressant (probability that activity matches class)	MS: mood stabilizer (probability that activity matches class)	PS: anti-psychotic (probability that activity matches class)	SD: sedative hypnotic (probability that activity matches class)	UN: uncharacterized CNS activity (probability that activity matches class)
CNC[C@@H]1OCCc2c(-c3cocn3)cccc21 [Compound 102, (R)—N-methyl-1-(5-(oxazol-4-yl)isochroman-1-yl)methanamine HCl salt]	10 to 30	+ (LOQ ≤ + <5%)	+ (LOQ ≤ + <5%)	++ (5% ≤ ++ <25%)	+ (LOQ ≤ + <5%)	+ (LOQ ≤ + <5%)	+ (LOQ ≤ + <5%)	+ (LOQ ≤ + <5%)	+ (LOQ ≤ + <5%)	+ (LOQ ≤ + <5%)
CNC[C@H]1OCCc2c(-c3cocn3)cccc21 [Compound 103, (S)—N-methyl-1-(5-(oxazol-4-yl)isochroman-1-yl)methanamine HCl salt]	≤ 3	++ (5% ≤ ++ <25%)	+ (LOQ ≤ + <5%)	++ (5% ≤ ++ <25%)	+ (LOQ ≤ + <5%)	++++ (50% ≤ ++++)	+ (LOQ ≤ + <5%)	+ (LOQ ≤ + <5%)	+ (LOQ ≤ + <5%)	+ (LOQ ≤ + <5%)
CNC[C@@H]1OCCc2c(-c3ncco3)cccc21 [Compound 104, (R)—N-Methyl-1-(5-(oxazol-2-yl)isochroman-1-yl)methanamine hydrochloride salt]	> 30	+ (LOQ ≤ + <5%)	+ (LOQ ≤ + <5%)	++ (5% ≤ ++ <25%)	+ (LOQ ≤ + <5%)	++ (5% ≤ ++ <25%)	+ (LOQ ≤ + <5%)	+ (LOQ ≤ + <5%)	+ (LOQ ≤ + <5%)	+ (LOQ ≤ + <5%)
CNC[C@H]1OCCc2c(-c3ncco3)cccc21 [Compound 105, (S)—N-methyl-1-(5-(oxazol-2-yl)isochroman-1-yl)methanamine dihydrochloride]	3 to 10	+ (LOQ ≤ + <5%)	+ (LOQ ≤ + <5%)	+ (LOQ ≤ + <5%)	+ (LOQ ≤ + <5%)	++++ (50% ≤ ++++)	+ (LOQ ≤ + <5%)	+ (LOQ ≤ + <5%)	+ (LOQ ≤ + <5%)	++ (5% ≤ ++ <25%)
Cl.NC[C@@H]1OCCc2c(-c3ncco3)cccc21 [Compound 106, (R)-(5-(Oxazol-2-yl)isochroman-1-yl)methanamine hydrochloride salt]	10 to 30	+ (LOQ ≤ + <5%)	+ (LOQ ≤ + <5%)	+++ (25% ≤ +++ <50%)	++ (5% ≤ ++ <25%)	++ (5% ≤ ++ <25%)	+ (LOQ ≤ + <5%)	+ (LOQ ≤ + <5%)	+ (LOQ ≤ + <5%)	+ (LOQ ≤ + <5%)
